From BindingDB's records for doi:10.1021/jm00056a003 (Universit&#224, 1993)

Target: L-type calcium channel (Felis catus)
Test: Inhibition of (-)-[3H]- D-888 binding to L-type calcium channels in kitten heart ventricle membranes

IC50: 260 nM
Compound: COc1ccc(CCN(C)C2CCCC(C(C#N)(c3ccc(OC)c(OC)c3)C(C)C)C2)cc1OC (stereo unspecified) [(RSR) 2-(3,4-Dimethoxy-phenyl)-2-(3-{[2-(3,4-dimethoxy-phenyl)-ethyl]-methyl-amino}-cyclohexyl)-3-methyl-butyronitrile]
